Experimental data: US20230221321A1, “METHOD FOR IDENTIFYING COMPOUNDS USEFUL FOR THE TREATMENT OF CANCER” (UNIVERSITÉ PARIS-SACLAY, priority 2020, published 2023)
Structures can show the parent of a compound that is named as a salt. Where two headings read alike, the source gives them in different places. Values belong to the molecule of their own block, whether it stands above or below them.

Columns and labels:
AIF/CHCHD4 = target: T1, AIF/CHCHD4 (Homo sapiens, UniProt O95831); assay: AlphaScreen (ALPHA) assay of the AIF103-613/CHCHD4 interaction; assay type: binding
T1 construct: The AIF103-613 protein (AIF protein fragment 103-613) and CHCHD4 protein were produced in BL21 + DE3 bacteria; made in house; host or cells: E. coli BL21 + DE3 (RIPL)
T1 sequence (O95831 103-613 limits assumed): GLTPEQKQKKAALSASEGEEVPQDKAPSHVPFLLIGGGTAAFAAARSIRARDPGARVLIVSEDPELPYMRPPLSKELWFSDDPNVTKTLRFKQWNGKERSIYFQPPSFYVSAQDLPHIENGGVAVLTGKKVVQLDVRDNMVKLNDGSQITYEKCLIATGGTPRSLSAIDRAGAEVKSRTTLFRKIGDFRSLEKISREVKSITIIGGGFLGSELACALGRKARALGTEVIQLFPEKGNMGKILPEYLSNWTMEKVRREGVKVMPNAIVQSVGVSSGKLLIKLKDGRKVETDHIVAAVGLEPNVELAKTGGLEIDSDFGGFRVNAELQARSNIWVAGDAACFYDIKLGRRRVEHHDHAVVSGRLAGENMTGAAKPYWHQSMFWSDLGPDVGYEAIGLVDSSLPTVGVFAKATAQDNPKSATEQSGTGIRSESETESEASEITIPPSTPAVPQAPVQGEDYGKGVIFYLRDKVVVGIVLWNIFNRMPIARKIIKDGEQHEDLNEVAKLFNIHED
Text: This method comprises the use: • of the AIF103-613 and CHCHD4 proteins previously produced; • of an AlphaScreen® kit (PerkinElmer) comprising donor beads and acceptor beads capable of conjugating to the AIF and CHCHD4 proteins; • of a positive control: the N27 peptide (corresponding to the 27 amino acids of the N-ter end of the CHCHD4 protein, as described in Hangen et al., 2015); • of a negative control: 0.1% bovine serum albumin (BSA) solution in phosphate buffered saline (PBS); • of a library of compounds to be tested: the Prestwick chemical compound library (Prestwick Chemical Library®) .
The ALPHA assay was first of all carried out at high throughput, using 384-well white microplates (Greiner, reference 781075), using 25 µl of total volume per well. The proteins, the positive control and the beads were diluted in a 0.1% BSA/PBS solution. All the distributions were carried out with an electronic multipipet, then the plates were centrifuged (200 g, 1 min). The plates were hermetically closed and incubated in the dark in a room at 23° C.
A library of 1280 small molecules, supplied by Prestwick Chemicals (Prestwick Chemical Library®) was screened. This library comprises compounds with various chemical and pharmacological properties, which are already approved by the health authorities, such as the FDA (Food and Drug Administration) or the EMEA (European Medicines Evaluation Agency). Each compound of the library is diluted in a 0.1% DMSO solution and used at a concentration of 10 µM. First of all, 5 µl of compound at […], of N27 at 3 µM (positive control) or of 0.1% BSA/PBS (negative control) were added to the wells. Secondly, 5 µl of AIF103-613 proteins were incubated with the compounds for 20 min before the addition of 5 µl of CHCHD4 for 2 h. Thirdly, 10 µl of a mixture of donor beads and acceptor beads at […] were incubated for 3 h. The analysis of the results was carried out by means of an EnSpire® multimode plate reader (PerkinElmer).
For each 384-well plate, 16 wells correspond to the positive control and 16 wells correspond to the negative control. The positive control corresponds to the measurement of the interaction of the AIF103-613 and CHCHD4 proteins in the presence of the N27 peptide (equivalent to the minimal signal). The negative control corresponds to the measurement of the interaction of the AIF103-613 and CHCHD4 proteins in the presence of the buffer (0.1% BSA/PBS) (equivalent to the maximum signal).
Following the high-throughput screening, the compounds are selected if the signal obtained in the presence of the compound is less than the following threshold TH:
For each compound previously selected, the ALPHA assay is repeated manually using another batch of powder of the compounds.
Each compound is tested at 10 µM and 30 µM due to the Hook effect particular to the ALPHAscreen technology and in order to select the compounds giving a signal located in the ascending part of the Hook bell and therefore active at low dose in a drug development perspective.
The compound is selected if: • the signal obtained in the presence of the compound is less than the threshold TH as described above; and • the signal obtained at 30 µM is less than the signal obtained at 10 µM.
In addition, for each compound thus selected, the dose-effect relationship of the compound is determined. This makes it possible to determine the median inhibitory concentration (IC50) of said compound.

[1] = tested on: A549 non-small-cell lung cancer cells; assay: Cytotoxicity by lactate dehydrogenase (LDH) release in A549 cells; assay type: cell-based, human; settings: A549, 3 h treatment; lowest dose tested for which a toxicity greater than 20% was measured
Protocol: The effect of the compounds on the metabolism of a non-small-cell lung cancer cell line (A549) was tested using the Seahorse technology (XFe96, Agilent) and the cell death was evaluated by measuring the release of lactate dehydrogenase (LDH, Promega). The cells seeded into 96-well microplates (20 000 cells/well) were treated with the compounds as a dose response (0.03; 0.1; 0.3; 1; 3; 10 µM) for 3 h in serum-free DMEM medium and then mitochondrial respiration (OXPHOS) and glycolysis were measured in real time. At the end of the experiment, the culture supernatant was removed in order to analyze the cell death, and the number of cells was determined by counting, after labelling the cells with DAPI, using a fluorescence microscope (Zeiss). The number of cells per well at the end of the experiment was then used to normalize the results obtained by Seahorse.
The compound concentration indicated in the “toxicity” column represents the lowest dose tested for which a toxicity greater than 20% was measured.

AIF103-613/CHCHD4 = target: T2, AIF103-613/CHCHD4 (Homo sapiens, UniProt O95831); assay: Surface plasmon resonance (SPR, Biacore) assay of the AIF/CHCHD4 interaction; assay type: binding; settings: compound preincubated 20 min with AIF, injected onto immobilized CHCHD4; criterion at least 50% of the inhibition obtained with N27 peptide
T2 construct: The AIF103-613 protein (AIF protein fragment 103-613) and CHCHD4 protein were produced in BL21 + DE3 bacteria; made in house; host or cells: E. coli BL21 + DE3 (RIPL)
T2 sequence (O95831 103-613 limits assumed): as above
Protocol: FIG. 3: SPR analysis of the compounds identified by Alphascreen. (A) SPR validation of thioridazine and of mitoxantrone, by means of the […], as inhibitors of the AIF103-613/CHCHD4 interaction. The compounds at 10 µM were incubated for 20 min with AIF in DPBS at pH 7.4 at ambient temperature. Then, the mixture was then injected for 3 minutes at a rate of 30 µl per minute onto the CHCHD4 protein. The N27 peptide at 3 µM was used as a […]. (B) Surface plasmon resonance (SPR) sensorgrams, making it possible to follow the binding of AIF103-613 to CHCHD4 in the presence of thioridazine hydrochloride or of mitoxantrone dihydrochloride. The thioridazine hydrochloride and the mitoxantrone dihydrochloride were tested at increasing concentrations ranging from 0.5 µM to 50 µM.
Some of the compounds identified by means of the Alpha assay as described above were tested by surface plasmon resonance (Biacore™ T100, GE Healthcare Life Sciences). The CHCHD4 protein was immobilized covalently on a dextran matrix comprising COOH functional carboxyl groups (Series S CM5® sensor chip, GE Healthcare Life Sciences, 29149603). […]
The sensorgrams were analyzed using the BIAevaluation software (Version 2.0.4).
The inhibition of the interaction of the AIF and CHCHD4 proteins by thioridazine and mitoxantrone was analyzed by means of a surface plasmon resonance assay (cf. FIG. 3). […]

[2] = target: T3, AIF103-613 protein (AIF protein fragment 103-613) (human, UniProt O95831 103-613); assay: AlphaScreen cross-titration
T3 construct: also called apoptosis-inducing factor
T3 sequence (O95831 103-613): as the sequence (O95831 103-613 limits assumed) above

[3] = obtained manually using the Alphascreen assay, read-out: IC50 AIF/CHCHD4

IC50 (AIF/CHCHD4; [3]): 12 µM
Molecule: Nisoldipine

Molecule: COc1cc(-c2ccc(N=Nc3ccc4c(S(=O)(=O)O)cc(S(=O)(=O)O)c(N)c4c3O)c(OC)c2)ccc1N=Nc1ccc2c(S(=O)(=O)O)cc(S(=O)(=O)O)c(N)c2c1O [Chicago sky blue 6B]
IC50 (AIF/CHCHD4; [3]): 1.44 µM

IC50 (AIF/CHCHD4; [3]): 0.415 µM
Molecule: CCN(CC)C(=S)SSC(=S)N(CC)CC [Disulfiram]
Cellular toxicity [1]: 3 µM

Molecule: NCCNCCNCCNCCN [Tetraethylenepentamine pentahydrochloride]
IC50 (AIF/CHCHD4; [3]): 9 µM | Cellular toxicity [1]: 10 µM

Molecule: Bromocriptine mesylate
IC50 (AIF/CHCHD4; [3]): 4.57 µM | Cellular toxicity [1]: 3 µM

Molecule: Mitoxantrone dihydrochloride
inhibition of the interaction between the AIF and CHCHD4 proteins (SPR) (AIF103-613/CHCHD4): capable of inhibiting the interaction | IC50 (AIF/CHCHD4; [3]): 1.27 µM | Cellular toxicity [1]: 3 µM

IC50 (AIF/CHCHD4; [3]): 4.8 µM
Molecule: CO[C@H]1/C=C/O[C@@]2(C)Oc3c(C)c(O)c4c(O)c(c(/C=N/N5CCN(C6CCCC6)CC5)c(O)c4c3C2=O)NC(=O)/C(C)=C\C=C\[C@H](C)[C@H](O)[C@@H](C)[C@@H](O)[C@@H](C)[C@H](OC(C)=O)[C@@H]1C [Rifapentine]
Cellular toxicity [1]: 10 µM

IC50 (AIF/CHCHD4; [3]): 8 µM
Molecule: COC(=O)C1=C(C)NC(C)=C(C(=O)OC2CCCN(Cc3ccccc3)C2)[C@@H]1c1cccc([N+](=O)[O-])c1 (stereo partly shown) [Benidipine hydrochloride]
Cellular toxicity [1]: 10 µM

IC50 (AIF/CHCHD4; [3]): 10.6 µM
Molecule: CCSc1ccc2c(c1)N(CCCN1CCN(C)CC1)c1ccccc1S2.O=C(O)CC(O)C(=O)O.O=C(O)CC(O)C(=O)O [Thiethylperazine dimalate]
Cellular toxicity [1]: 10 µM

Molecule: O=C1OC2(c3cc(Br)c(O)cc3Oc3c2cc(Br)c(O)[c]3[Hg][OH])c2ccccc21 (stereo not shown) [Merbromine]
IC50 (AIF/CHCHD4): 0.169 µM

inhibition of the interaction between the AIF and CHCHD4 proteins (SPR) (AIF103-613/CHCHD4): capable of inhibiting the interaction | IC50 (AIF/CHCHD4; [3]): 24 µM
Molecule: CSc1ccc2c(c1)N(CCC1CCCCN1C)c1ccccc1S2 (stereo not shown) [Thioridazine hydrochloride]
Cellular toxicity [1]: 1 µM

binding result [2]: binds
B1: CHCHD4 protein (coiled-coil-helix-coiled-coil-helix domain containing 4) (other)
chain: MSYCRQEGKDRIIFVTKEDHETPSSAELVADDPNDPYEEHGLILPNGNINWNCPCLGGMASGPCGEQFKSAFSCFHYSTEEIKGSDCVDQFRAMQECMQKYPDLYPQEDEDEEEEREKKPAEQAEETAPIEATATKEEEGSS
notes: In SPR the protein was coupled covalently to a CM5 chip; also called MIA40; mitochondrial intermembrane space import and assembly protein 40
